Biological target: T1, GST-YTHDC1 (345-509) protein (Homo sapiens, UniProt Q96MU7)
T1 construct: GST-YTHDC1 (345-509) protein
Experiment: Fluorescence polarization-based in vitro enzyme-level test against YTHDC1
Assay type: binding
Settings: 30 nM GST-YTHDC1 (345-509), FAM-labeled m6A-modified single-stranded oligonucleotide, 18° C., 4 hours; read-out: IC50 (Inhibitory Activity against YTHDC1)

Going from `O=C(Nc1ccc(-c2cnco2)cc1)c1cc(C(=O)c2ccccc2-c2ccccc2)c[nH]1` [Compound 152] to `O=C(Nc1ccc(-c2cnco2)cc1)c1cc(C(=O)c2ccccc2C2=COCC2)c[nH]1` [Compound 145], the IC50 rises from 14 nM to 39 nM (2.8-fold).

Going from `O=C(Nc1ccc(-c2cncs2)cc1)c1cc2c(-c3ccccc3-c3ccccc3)nccc2[nH]1` [Compound 64] to `O=C(Nc1ccc(-c2cncs2)cc1)c1cc2c(-c3ccccc3CO)nccc2[nH]1` [Compound 45], the IC50 rises from 1130 nM to greater than 50000 nM.

First: O=C(Nc1ccc(-c2cnc(N3CCN(C4COC4)CC3)o2)cc1)c1cc(C(=O)c2ccccc2Br)c[nH]1 [Compound 85]
Second: O=C(Nc1ccc(-c2cnc(N3CCN(CCO)CC3)o2)cc1)c1cc(C(=O)c2ccccc2Br)c[nH]1 [Compound 86]
The IC50 of the first is 3.6-fold lower: 234 nM for the first, 847 nM for the second. The first is the more potent here.

Going from `CS(=O)(=O)Nc1ccccc1-c1nccc2[nH]c(C(=O)Nc3ccc(-c4cncs4)cc3)cc12` [Compound 52] to `O=C(Nc1ccc(-c2cncs2)cc1)c1cc2c(-c3ccccc3[N+](=O)[O-])nccc2[nH]1` [Compound 55], the IC50 falls from 660 nM to 278 nM (2.4-fold). The second is the more potent here.

First: COc1cc(NC(=O)c2cc(C(=O)c3ccccc3C(F)(F)F)c[nH]2)ccc1-c1cnco1 [Compound 90]
Second: O=C(Nc1ccc(-c2cnco2)c(F)c1)c1cc(C(=O)c2ccccc2C(F)(F)F)c[nH]1 [Compound 93]
The IC50 of the first is 2.4-fold lower: 3.7 nM for the first, 8.92 nM for the second.

Compared with `CC(C)(C)OC(=O)n1cc(-c2ccc(NC(=O)c3cc(C(=O)c4ccccc4C(F)(F)F)c[nH]3)cc2)c2ccccc21` [Compound 129], `CC(C)(C)OC(=O)N1CCc2cc(-c3ccc(NC(=O)c4cc(C(=O)c5ccccc5C(F)(F)F)c[nH]4)cc3)ccc21` [Compound 124] is higher in IC50: 31200 nM for the first, no less than 50000 nM for the second.

First: O=C(Nc1ccc(-c2cnco2)cc1)c1cc(C(=O)c2ccccc2C2CCCC2)c[nH]1 [Compound 146]
Second: CC1CCN(c2ccccc2C(=O)c2c[nH]c(C(=O)Nc3ccc(-c4cnco4)cc3)c2)CC1 [Compound 125]
The IC50 of the first is 1.6-fold higher: 21 nM for the first, 13 nM for the second.

First: CN(C)CCOc1cc(NC(=O)c2cc(C(=O)c3ccccc3C(F)(F)F)c[nH]2)ccc1-c1cnco1 [Compound 101]
Second: CN(CCO)c1cc(NC(=O)c2cc(C(=O)c3ccccc3C(F)(F)F)c[nH]2)ccc1-c1cnco1 [Compound 99]
The IC50 of the first is 6-fold lower: 43 nM for the first, 258 nM for the second.

`O=C(Nc1ccc(-c2ccsc2)cc1)c1cc(C(=O)c2ccccc2C(F)(F)F)c[nH]1` [Compound 26] and `O=C(Nc1ccc(-c2ccccc2)cc1)c1cc(C(=O)c2ccccc2C(F)(F)F)c[nH]1` [Compound 21] are within 1.5-fold of each other in IC50: 64 nM for the first, 71 nM for the second.

Going from `CN(C)c1ccccc1-c1ccc(NC(=O)c2cc(C(=O)c3ccccc3C(F)(F)F)c[nH]2)cc1` [Compound 110] to `COC(=O)c1cccc(-c2ccc(NC(=O)c3cc(C(=O)c4ccccc4C(F)(F)F)c[nH]3)cc2)c1` [Compound 108], the IC50 falls from 413 nM to 183 nM (2.3-fold).

First: O=C(Nc1ccc(-c2cncs2)cc1)c1cc2c(-c3ccccc3OC(F)F)nccc2[nH]1 [Compound 63]
Second: O=C(Nc1ccc(-c2cncs2)cc1)c1cc2c(-c3ccccc3OC3CC3)nccc2[nH]1 [Compound 67]
The IC50 of the first is lower: 394 nM for the first, greater than 50000 nM for the second.

First: C[C@H]1CN(c2ccccc2C(=O)c2c[nH]c(C(=O)Nc3ccc(-c4cnco4)cc3)c2)CCO1 [Compound 148]
Second: O=C(Nc1ccc(-c2cnco2)cc1)c1cc(C(=O)c2ccccc2N2CC(F)C2)c[nH]1 [Compound 153]
The IC50 of the first is 4.7-fold higher: 66 nM for the first, 14 nM for the second.

Compared with `O=C(Nc1ccc(-c2cncs2)cc1)c1cc2c(-c3ccccc3N3CCOCC3)nccc2[nH]1` [Compound 56], `O=C(Nc1ccc(-c2cncs2)cc1)c1cc2c(-c3ccccc3C3CC3)nccc2[nH]1` [Compound 66] is higher in IC50: 928 nM for the first, greater than 50000 nM for the second.

First: CN1CCN(c2ccc(-c3ccc(NC(=O)c4cc(C(=O)c5ccccc5C(F)(F)F)c[nH]4)cc3)cc2)CC1 [Compound 109]
Second: O=C(Nc1ccc(-c2ccc(N3CCCC3)cc2)cc1)c1cc(C(=O)c2ccccc2C(F)(F)F)c[nH]1 [Compound 106]
The IC50 of the first is 40-fold lower: 44 nM for the first, 1770 nM for the second.

Going from `CC(C)(C)OC(=O)N1CCN(c2ncc(-c3ccc(NC(=O)c4cc(C(=O)C5C=CC=CC5Br)c[nH]4)cc3)o2)CC1` (stereo not drawn) [Compound 84] to `O=C(Nc1ccc(-c2cnc(N3CCN(S(=O)(=O)C4CC4)CC3)o2)cc1)c1cc(C(=O)C2C=CC=CC2Br)c[nH]1` (stereo not drawn) [Compound 87], the IC50 falls from greater than 50000 nM to 2320 nM. The second is the more potent here.

Compared with `CS(=O)(=O)c1ccccc1-c1nccc2[nH]c(C(=O)Nc3ccc(-c4ccncc4)cc3)cc12` [Compound 73], `CS(=O)(=O)c1ccccc1-c1ccnc2[nH]c(C(=O)Nc3ccc(-c4cncs4)cc3)cc12` [Compound 70] is 2.8-fold lower in IC50: 6270 nM for the first, 2280 nM for the second.

Going from `O=C(Nc1cccnc1)c1cc(C(=O)c2c(F)cc(F)cc2Br)c[nH]1` [Compound 3] to `O=C(Nc1cccnc1)c1cc(C(=O)c2ccccc2Cl)c[nH]1` [Compound 8], the IC50 falls from greater than 50000 nM to 2840 nM.

Going from `CN1C(=O)Cc2cc(-c3ccc(NC(=O)C4=CC(C(=O)c5ccccc5C(F)(F)F)CN4)cc3)ccc21` (stereo not drawn) [Compound 107] to `O=C(Nc1ccc(-c2cnco2)cc1)c1cc(C(=O)c2ccccc2C(F)(F)F)c[nH]1` [Compound 105], the IC50 falls from 22 nM to 9.7 nM (2.3-fold). The second is the more potent here.

First: N#Cc1ccccc1-c1nccc2[nH]c(C(=O)Nc3ccc(-c4cncs4)cc3)cc12 [Compound 43]
Second: CN(C)c1ccccc1-c1nccc2[nH]c(C(=O)Nc3ccc(-c4cncs4)cc3)cc12 [Compound 61]
The IC50 of the first is 1.6-fold higher: 3900 nM for the first, 2510 nM for the second.

`O=C(Nc1ccc(-c2cncs2)cc1)c1cc2c(-c3ccc(C(F)(F)F)cc3C(F)(F)F)nccc2[nH]1` [Compound 48] and `O=C(Nc1ccc(-c2cncs2)cc1)c1cc2c(-c3c[nH]nc3C(F)(F)F)nccc2[nH]1` [Compound 54] cannot be ordered by IC50: greater than 50000 nM for the first, greater than 50000 nM for the second.

Compared with `O=C(Nc1ccc2c(c1)CCN2c1ccccc1)c1cc(C(=O)c2ccccc2C(F)(F)F)c[nH]1` [Compound 133], `O=C(Nc1ccccc1)c1cc(C(=O)c2ccccc2C(F)(F)F)c[nH]1` [Compound 12] is 6.2-fold lower in IC50: 747 nM for the first, 120 nM for the second. The second is the more potent here.

Compared with `O=C(Nc1ccc(Br)cc1)c1cc(C(=O)c2ccccc2C(F)(F)F)c[nH]1` [Compound 16], `O=C(Nc1ccc(F)cc1)c1cc(C(=O)c2ccccc2C(F)(F)F)c[nH]1` [Compound 15] is 2.6-fold higher in IC50: 41 nM for the first, 105 nM for the second.

Compared with `COc1ccc(CNc2ccccc2C(=O)c2c[nH]c(C(=O)Nc3ccc(-c4cnco4)cc3)c2)cc1` [Compound 130], `O=C(Nc1ccc(-c2cnco2)cc1)c1cc(C(=O)c2ccccc2CCCCO)c[nH]1` [Compound 143] is lower in IC50: no less than 50000 nM for the first, 9 nM for the second.

`CCc1ccccc1C(=O)c1c[nH]c(C(=O)Nc2cccnc2)c1` [Compound 11] and `CC(C)(C)c1ccccc1C(=O)c1c[nH]c(C(=O)Nc2cccnc2)c1` [Compound 10] are within 1.5-fold of each other in IC50: 1570 nM for the first, 2010 nM for the second.

First: O=C(Nc1ccccc1F)c1cc(C(=O)c2ccccc2C(F)(F)F)c[nH]1 [Compound 13]
Second: O=C(Nc1cccc(C(F)(F)F)c1)c1cc(C(=O)c2ccccc2C(F)(F)F)c[nH]1 [Compound 115]
The IC50 of the first is 4.3-fold lower: 612 nM for the first, 2640 nM for the second. The first is the more potent here.

First: O=C1CC2C=C(c3ccc(NC(=O)c4cc(C(=O)c5ccccc5C(F)(F)F)c[nH]4)cc3)C=CC2N1 (stereo not drawn) [Compound 126]
Second: O=C(Nc1ccc(-c2cnc[nH]2)cc1)c1cc(C(=O)c2ccccc2C(F)(F)F)c[nH]1 [Compound 27]
The IC50 of the first is 1.8-fold lower: 13 nM for the first, 23 nM for the second.

Compared with `CC(C)(C)OC(=O)N1CCN2c3ccc(NC(=O)c4cc(C(=O)c5ccccc5C(F)(F)F)c[nH]4)cc3OCC2C1` (stereo not drawn) [Compound 82], `CC(C)(C)OC(=O)Nc1ccc(-c2ccc(NC(=O)c3cc(C(=O)c4ccccc4C(F)(F)F)c[nH]3)cc2)cc1` [Compound 116] is higher in IC50: 125 nM for the first, no less than 50000 nM for the second. The first is the more potent here.

First: O=C(Nc1ccc(-c2cnc(N3CCNCC3)o2)cc1)c1cc(C(=O)c2ccccc2C(F)(F)F)c[nH]1 [Compound 81]
Second: O=C(Nc1ccc(-c2cnc(N3CCC3)o2)cc1)c1cc(C(=O)c2ccccc2C(F)(F)F)c[nH]1 [Compound 104]
The IC50 of the first is 6.8-fold higher: 61 nM for the first, 9 nM for the second. The second is the more potent here.

Compared with `O=C(Nc1ccc(S(=O)(=O)Nc2ccccc2)cc1)c1cc(C(=O)c2ccccc2C(F)(F)F)c[nH]1` [Compound 123], `O=C(Nc1ccc(C(F)(F)F)cc1)c1cc(C(=O)c2ccccc2C(F)(F)F)c[nH]1` [Compound 18] is 3-fold lower in IC50: 118 nM for the first, 39 nM for the second. The second is the more potent here.

`O=C(Nc1ccc(-c2cnco2)cc1)c1cc(C(=O)c2ccccc2N2CCOC2=O)c[nH]1` [Compound 136] and `O=C(Nc1ccc(-c2cnco2)cc1)c1cc(C(=O)c2ccccc2N2CCCC2=O)c[nH]1` [Compound 121] are within 1.5-fold of each other in IC50: 28 nM for the first, 25 nM for the second.

First: O=C(Nc1ccc(-c2cnc(N3CCCCC3)s2)cc1)c1cc(C(=O)c2ccccc2C(F)(F)F)c[nH]1 [Compound 37]
Second: O=C(Nc1ccc(-c2cnc(N3CCOCC3)s2)cc1)c1cc(C(=O)c2ccccc2C(F)(F)F)c[nH]1 [Compound 38]
The IC50 of the first is 20-fold higher: 335 nM for the first, 17 nM for the second. The second is the more potent here.

First: CCN(CCNc1ncc(-c2ccc(NC(=O)c3cc(C(=O)c4ccccc4C(F)(F)F)c[nH]3)cc2)o1)C(=O)OC(C)(C)C [Compound 76]
Second: CN1CCN(c2ncc(-c3ccc(NC(=O)c4cc(C(=O)c5ccccc5C(F)(F)F)c[nH]4)cc3)o2)CC1 [Compound 79]
The IC50 of the first is 57-fold higher: 5040 nM for the first, 88 nM for the second.

Going from `COc1cc(NC(=O)c2cc(C(=O)c3ccccc3C(F)(F)F)c[nH]2)ccc1C(F)(F)F` [Compound 114] to `COC(=O)c1cc(C(F)(F)F)ccc1NC(=O)c1cc(C(=O)c2ccccc2C(F)(F)F)c[nH]1` [Compound 117], the IC50 rises from 16 nM to no less than 50000 nM. The first is the more potent here.

Compared with `Cc1cc(-c2cnco2)ccc1NC(=O)c1cc(C(=O)c2ccccc2C(F)(F)F)c[nH]1` [Compound 95], `Cn1nc(C(F)(F)F)cc1-c1ccc(NC(=O)c2cc(C(=O)c3ccccc3C(F)(F)F)c[nH]2)cc1` [Compound 30] is 14-fold higher in IC50: 39 nM for the first, 530 nM for the second.

Going from `O=C(Nc1ccc(-c2cnc(N3CCN(S(=O)(=O)Cc4ccccc4)CC3)o2)cc1)c1cc(C(=O)C2C=CC=CC2C(F)(F)F)c[nH]1` (stereo not drawn) [Compound 89] to `CN1CCN(c2ccccc2C(=O)c2c[nH]c(C(=O)Nc3ccc(-c4cnco4)cc3)c2)CC1` [Compound 139], the IC50 falls from greater than 50000 nM to 1050 nM.

First: O=C(Nc1ccc(-c2cnco2)cc1)c1cc(C(=O)c2ccccc2N2CC3(CCC3)C2)c[nH]1 [Compound 144]
Second: CC(C)n1nccc1-c1nccc2[nH]c(C(=O)Nc3ccc(-c4cncs4)cc3)cc12 [Compound 40]
The IC50 of the first is lower: 48 nM for the first, greater than 50000 nM for the second.
